Results on one compound are retold here after ChEMBL document CHEMBL1130033, “17 beta-(3-furyl)-5 beta-androstane-3 beta, 14 beta, 17 alpha-triol (PST 2238). A very potent antihypertensive agent with a novel mechanism of action” (J Med Chem, 1997).

This test concerns the target Sodium/potassium-transporting ATPase. The test can be described thus: Ability to displace [3H]ouabain from Na+/K+ ATPase in dog kidney. The test is classed as protein-complex assay, Canis lupus familiaris.

The structures appear in SMILES notation.

As for `C[C@]12CC[C@H](O)C[C@H]1CC[C@@H]1[C@@H]2CC[C@]2(C)[C@@](O)(c3ccoc3)CC[C@]12O` [ROSTAFUROXIN], the half-maximal inhibitory concentration (IC50) (as a rule, the concentration that gives 50% inhibition) worked out at 1.5 µM.
